Measurements: paper PMC6514978, “Synthesis, Antibacterial Activities, Mode of Action and Acute Toxicity Studies of New Oxazolidinone-Fluoroquinolone Hybrids” (Molecules, 2019)
In brackets after ≈: the same amount, converted by molar mass.

What was measured:
[1] = system: E. faecalis (72) clinical isolates; test: Susceptibility of clinical isolates (MIC); format: cell-based, Enterococcus faecalis; conditions: for MIC Range / MIC50 / MIC90: E. faecalis, 72 clinical isolates; for MIC50 / MIC90: Enterococcus faecalis
Procedure: (§1) Susceptibility testing of oxazolidinone-fluoroquinolone hybrids against various bacteria was performed by the broth microdilution method as outlined by the Clinical and Laboratory Standards Institute (CLSI). Three types of media, including cation-adjusted Mueller Hinton broth, Haemophilus Test Medium and cation-adjusted Mueller Hinton broth that contained 3%–5% lysed horse blood, were used to culture the corresponding bacteria. […] A final inoculum of 5 × 10^5 CFU/mL was used and plates were read after incubation for 16–24 h at 35 °C. […] Standard quality control strains (ATCC) were included throughout. Each determination was repeated in triplicate.

[2] = system: S. epidermidis (10) clinical isolates; test: Susceptibility of clinical isolates (MIC); format: cell-based, Staphylococcus epidermidis; conditions: for MIC50 / MIC90 / MIC: Staphylococcus epidermidis, S. epidermidis, 10 clinical isolates; for MIC50: read-out: MIC50; for MIC90: read-out: MIC90; for MIC: read-out: MIC Range
Procedure: as §1

[3] = system: E. faecium (47) clinical isolates; test: Susceptibility of clinical isolates (MIC); format: cell-based, Enterococcus faecium; conditions: for MIC50 / MIC90: Enterococcus faecium; for MIC50 / MIC90 / MIC Range: E. faecium, 47 clinical isolates; for MIC50: read-out: MIC50; for MIC90: read-out: MIC90
Procedure: as §1

[4] = system: LZD-resistant E. faecalis; test: microbe, parasite or virus in culture; format: cell-based; conditions: Enterococcus faecalis
Procedure: (§2) 6 standard strains and 3 clinical isolates were used to the preliminary evaluation of in vitro antibacterial activities of oxazolidinone-fluoroquinolone hybrids.
as §1

[5] = system: S. haemolyticus (32) clinical isolates; test: Susceptibility of clinical isolates (MIC); format: cell-based, Staphylococcus haemolyticus; conditions: for MIC50 / MIC90 / MIC: Staphylococcus haemolyticus, S. haemolyticus, 32 clinical isolates; for MIC50: read-out: MIC50; for MIC90: read-out: MIC90; for MIC: read-out: MIC Range
Procedure: as §1

[6] = system: S. aureus (46) clinical isolates; test: Susceptibility of clinical isolates (MIC); format: cell-based, Staphylococcus aureus; conditions: for MIC50 / MIC90 / MIC: Staphylococcus aureus, S. aureus, 46 clinical isolates; for MIC50: read-out: MIC50; for MIC90: read-out: MIC90; for MIC: read-out: MIC Range
Procedure: as §1

MRSE = test: MIC against drug-resistant strain; format: cell-based, S. epidermidis; conditions: Staphylococcus epidermidis, read-out: MIC
Procedure: as §2, §1

[7] = system: S. suis (9) clinical isolates; test: Susceptibility of clinical isolates (MIC); format: cell-based, Streptococcus suis; conditions: Streptococcus suis, S. suis, 9 clinical isolates; for MIC50: read-out: MIC50; for MIC90: read-out: MIC90; for MIC: read-out: MIC Range
Procedure: as §1

[8] = system: S. pneumoniae (13) clinical isolates; test: Susceptibility of clinical isolates (MIC); format: cell-based, Streptococcus pneumoniae; conditions: for MIC50 / MIC90: Streptococcus pneumoniae; for MIC50: read-out: MIC50; for MIC90: read-out: MIC90
Procedure: as §1

[9] = system: H. parasuis (34) clinical isolates; test: Susceptibility of clinical isolates (MIC); format: cell-based, Haemophilus parasuis; conditions: H. parasuis, 34 clinical isolates; for MIC50 / MIC90: Glaesserella parasuis; for MIC50: read-out: MIC50; for MIC90: read-out: MIC90
Procedure: as §1

[10] = system: LZD and quinolone-resistant E. faecium; test: MIC against drug-resistant strain; format: cell-based; conditions: Enterococcus faecium; E. faecium, LZD and quinolone-resistant; read-out: MIC
Procedure: as §2, §1

[11] = system: CIP-resistant S. haemolyticus; test: MIC against drug-resistant strain; format: cell-based; conditions: Staphylococcus haemolyticus; S. haemolyticus, CIP-resistant; read-out: MIC
Procedure: as §2, §1

[12] = system: VAN and quinolone-resistant E. faecium; test: MIC against drug-resistant strain; format: cell-based; conditions: Enterococcus faecium; E. faecium, VAN and quinolone-resistant; read-out: MIC
Procedure: as §2, §1

MRSA = test: MIC against drug-resistant strain; format: cell-based; conditions: Staphylococcus aureus, read-out: MIC
Procedure: as §2, §1

[13] = system: VAN and quinolone-resistant S. pneumoniae; test: MIC against drug-resistant strain; format: cell-based; conditions: Streptococcus pneumoniae; S. pneumoniae, VAN and quinolone-resistant; read-out: MIC
Procedure: as §2, §1

CIP-resistant S. aureus = test: MIC against drug-resistant strain; format: cell-based; conditions: Staphylococcus aureus; S. aureus, CIP-resistant; read-out: MIC
Procedure: as §2, §1

[14] = S. pneumoniae, 13 clinical isolates
[15] = S. epidermidis clinical isolates, CLSI criteria
[16] = E. faecium clinical isolates, CLSI criteria
[17] = S. haemolyticus clinical isolates, CLSI criteria
[18] = S. aureus clinical isolates, CLSI criteria
[19] = S. pneumoniae clinical isolates, CLSI criteria

Compound: CCN1CCN(c2cc3c(cc2F)c(=O)c(C(=O)O)cn3C2CC2)CC1 [ENR, enrofloxacin]
- MIC Range [1]: ≤0.0625 to 2 µg/mL
- MIC50 [1]: 0.5 µg/mL (≈ 1.39 µM)
- MIC90 [1]: 0.5 µg/mL (≈ 1.39 µM)
- MIC50 [2]: 2 µg/mL (≈ 5.56 µM)
- MIC90 [2]: 4 µg/mL (≈ 11.1 µM)
- MIC [2]: 0.125 to 4 µg/mL (≈ 0.348 to 11.1 µM)
- MIC50 [3]: 2 µg/mL (≈ 5.56 µM)
- MIC90 [3]: 32 µg/mL (≈ 89 µM)
- MIC [4]: 1 µg/mL (≈ 2.78 µM)
- MIC50 [5]: ≤ 0.0625 µg/mL
- MIC90 [5]: 0.5 µg/mL (≈ 1.39 µM)
- MIC [5]: 0.0625 to 8 µg/mL (≈ 0.174 to 22.3 µM)
- MIC50 [6]: 2 µg/mL (≈ 5.56 µM)
- MIC90 [6]: 4 µg/mL (≈ 11.1 µM)
- MIC [6]: 0.0625 to 8 µg/mL (≈ 0.174 to 22.3 µM)
- MIC (MRSE): ≤ 0.0625 µg/mL
- MIC50 [7]: 0.25 µg/mL (≈ 0.696 µM)
- MIC90 [7]: 4 µg/mL (≈ 11.1 µM)
- MIC [7]: 0.0625 to 8 µg/mL (≈ 0.174 to 22.3 µM)
- MIC50 [8, 14]: 32 µg/mL (≈ 89 µM)
- MIC90 [8, 14]: > 32 µg/mL
- MIC50 [9]: ≤ 0.0625 µg/mL
- MIC90 [9]: 1 µg/mL (≈ 2.78 µM)
- MIC Range [9]: ≤0.0625 to 1 µg/mL
- MIC [10]: > 32 µg/mL
- MIC [11]: 8 µg/mL (≈ 22.3 µM)
- MIC [12]: > 32 µg/mL
- MIC (MRSA): 0.25 µg/mL (≈ 0.696 µM)
- MIC [13]: > 32 µg/mL
- MIC (CIP-resistant S. aureus): 2 µg/mL (≈ 5.56 µM)

Compound: COc1c(N2CCNC(C)C2)c(F)cc2c(=O)c(C(=O)O)cn(C3CC3)c12 (centres unmarked) [GAFX, gatifloxacin]
- CLSI %S (susceptible) ([1]; E. faecalis clinical isolates, CLSI criteria): 94.6/- %
- MIC Range [1]: 0.125 to 2 µg/mL
- MIC50 [1]: 0.25 µg/mL (≈ 0.666 µM)
- MIC90 [1]: 0.5 µg/mL (≈ 1.33 µM)
- CLSI %R (resistant) [2, 15]: 50.0%
- CLSI %S (susceptible) [2, 15]: 30.0%
- MIC50 [2]: 1 µg/mL (≈ 2.66 µM)
- MIC90 [2]: 2 µg/mL (≈ 5.33 µM)
- MIC [2]: 0.125 to 2 µg/mL (≈ 0.333 to 5.33 µM)
- CLSI %R (resistant) [3, 16]: 13.8%
- CLSI %S (susceptible) [3, 16]: 86.2%
- MIC Range [3]: 0.25 to 8 µg/mL
- MIC50 [3]: 1 µg/mL (≈ 2.66 µM)
- MIC90 [3]: 8 µg/mL (≈ 21.3 µM)
- MIC [4]: 0.5 µg/mL (≈ 1.33 µM)
- CLSI %R (resistant) [5, 17]: 3.8%
- CLSI %S (susceptible) [5, 17]: 96.2%
- MIC50 [5]: 0.125 µg/mL (≈ 0.333 µM)
- MIC90 [5]: 0.25 µg/mL (≈ 0.666 µM)
- MIC [5]: 0.0625 to 2 µg/mL (≈ 0.166 to 5.33 µM)
- CLSI %R (resistant) [6, 18]: 42.4%
- CLSI %S (susceptible) [6, 18]: 45.5%
- MIC50 [6]: 1 µg/mL (≈ 2.66 µM)
- MIC90 [6]: 2 µg/mL (≈ 5.33 µM)
- MIC [6]: 0.0625 to 2 µg/mL (≈ 0.166 to 5.33 µM)
- MIC (MRSE): ≤ 0.0625 µg/mL
- MIC50 [7]: ≤ 0.0625 µg/mL
- MIC90 [7]: 4 µg/mL (≈ 10.7 µM)
- MIC [7]: 0.0625 to 4 µg/mL (≈ 0.166 to 10.7 µM)
- CLSI %R (resistant) [8, 19]: 92.3%
- CLSI %S (susceptible) [8, 19]: 7.7%
- MIC Range [8, 14]: 4 to 32 µg/mL
- MIC50 [8, 14]: 4 µg/mL (≈ 10.7 µM)
- MIC90 [8, 14]: 32 µg/mL (≈ 85.2 µM)
- MIC50 [9]: ≤ 0.0625 µg/mL
- MIC90 [9]: 1 µg/mL (≈ 2.66 µM)
- MIC Range [9]: ≤0.0625 to 1 µg/mL
- MIC [10]: 8 µg/mL (≈ 21.3 µM)
- MIC [11]: 2 µg/mL (≈ 5.33 µM)
- MIC [12]: 16 µg/mL (≈ 42.6 µM)
- MIC (MRSA): 0.125 µg/mL (≈ 0.333 µM)
- MIC [13]: > 32 µg/mL
- MIC (CIP-resistant S. aureus): 2 µg/mL (≈ 5.33 µM)

Compound: CC1CCc2c(N3CCC(O)CC3)c(F)cc3c(=O)c(C(=O)O)cn1c23 (centres unmarked) [NDFX, nadifloxacin]
- MIC Range [1]: 0.125 to 2 µg/mL
- MIC50 [1]: 0.25 µg/mL (≈ 0.694 µM)
- MIC90 [1]: 1 µg/mL (≈ 2.77 µM)
- MIC50 [2]: 1 µg/mL (≈ 2.77 µM)
- MIC90 [2]: 2 µg/mL (≈ 5.55 µM)
- MIC [2]: 0.0625 to 2 µg/mL (≈ 0.173 to 5.55 µM)
- MIC Range [3]: 0.5 to 16 µg/mL
- MIC50 [3]: 2 µg/mL (≈ 5.55 µM)
- MIC90 [3]: 8 µg/mL (≈ 22.2 µM)
- MIC [4]: 1 µg/mL (≈ 2.77 µM)
- MIC50 [5]: ≤ 0.0625 µg/mL
- MIC90 [5]: 0.5 µg/mL (≈ 1.39 µM)
- MIC [5]: 0.0625 to 4 µg/mL (≈ 0.173 to 11.1 µM)
- MIC50 [6]: 0.5 µg/mL (≈ 1.39 µM)
- MIC90 [6]: 0.5 µg/mL (≈ 1.39 µM)
- MIC [6]: 0.0625 to 2 µg/mL (≈ 0.173 to 5.55 µM)
- MIC (MRSE): 0.125 µg/mL (≈ 0.347 µM)
- MIC50 [7]: ≤ 0.0625 µg/mL
- MIC90 [7]: 2 µg/mL (≈ 5.55 µM)
- MIC [7]: 0.0625 to 4 µg/mL (≈ 0.173 to 11.1 µM)
- MIC50 [8, 14]: 16 µg/mL (≈ 44.4 µM)
- MIC90 [8, 14]: > 32 µg/mL
- MIC50 [9]: ≤ 0.0625 µg/mL
- MIC90 [9]: 1 µg/mL (≈ 2.77 µM)
- MIC Range [9]: ≤0.0625 to 1 µg/mL
- MIC [10]: 16 µg/mL (≈ 44.4 µM)
- MIC [11]: 4 µg/mL (≈ 11.1 µM)
- MIC [12]: 32 µg/mL (≈ 88.8 µM)
- MIC (MRSA): ≤ 0.0625 µg/mL
- MIC [13]: > 32 µg/mL
- MIC (CIP-resistant S. aureus): 0.5 µg/mL (≈ 1.39 µM)
